Data on nine compounds can be found in article PMC4661110 (Bioorganic & medicinal chemistry, 2015).

In assay [1] the test system is S. aureus Mu50. Kind of assay: Bacteriostatic effect. Type of assay: cell-based. To be noted: for MIC fold higher than that of SCA-50: S. aureus Mu50.
In assay [2] the test system is S. aureus NorA and MepA efflux pump strains. It counts as cell-based. As to conditions: confirmed by MIC, Table 3.
Assay [3] has as its target T1, SaSecA1 (Staphylococcus aureus, UniProt O06446).
T1 sequence (O06446 1-843): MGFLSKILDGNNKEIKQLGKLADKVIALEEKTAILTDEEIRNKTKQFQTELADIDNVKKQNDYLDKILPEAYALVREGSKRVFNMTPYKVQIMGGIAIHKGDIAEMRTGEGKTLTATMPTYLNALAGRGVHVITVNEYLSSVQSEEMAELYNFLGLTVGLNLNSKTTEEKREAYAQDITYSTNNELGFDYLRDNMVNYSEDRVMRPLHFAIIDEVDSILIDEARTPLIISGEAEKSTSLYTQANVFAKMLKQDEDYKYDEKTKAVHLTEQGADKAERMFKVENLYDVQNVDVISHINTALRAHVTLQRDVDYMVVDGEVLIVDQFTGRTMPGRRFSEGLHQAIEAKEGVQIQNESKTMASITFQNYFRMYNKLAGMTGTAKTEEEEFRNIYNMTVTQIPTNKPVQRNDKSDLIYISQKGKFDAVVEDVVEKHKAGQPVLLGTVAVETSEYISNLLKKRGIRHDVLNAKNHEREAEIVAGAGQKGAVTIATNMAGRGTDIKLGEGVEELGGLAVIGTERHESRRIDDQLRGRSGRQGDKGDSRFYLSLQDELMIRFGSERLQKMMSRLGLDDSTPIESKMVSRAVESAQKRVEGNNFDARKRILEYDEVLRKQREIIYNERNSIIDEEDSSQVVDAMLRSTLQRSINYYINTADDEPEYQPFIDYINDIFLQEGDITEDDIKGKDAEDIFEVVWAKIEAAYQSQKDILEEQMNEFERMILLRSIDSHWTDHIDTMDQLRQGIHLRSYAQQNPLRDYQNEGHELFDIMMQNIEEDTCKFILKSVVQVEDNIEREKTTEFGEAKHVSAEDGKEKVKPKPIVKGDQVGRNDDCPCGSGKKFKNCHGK
It counts as biochemical. To be noted: liposomes-oocytes, different concentrations of ATP.

The next assay relates to S. aureus ATCC 6538. As to the kind of experiment: Effects of light on bactericidal result. It counts as cell-based. To be noted: 40 µM, 2 hr, dark vs light.
Assay [4] deals with secretion of α-hemolysin, enterotoxin B, and TSST-1 by S. aureus Mu50. It counts as cell-based.
Assay [5] concerns S. aureus Mu50. Type of assay: cell-based. To be noted: 10 µM, mid-log phase (OD600 ≈ 2.6), first 15 hr.
The target in assay [6] is T1, SaSecA1. Kind of assay: Protein pull down assay from whole cell lysate. It counts as binding. As to conditions: 400 µM, S. aureus ATCC 6538 lysate, Streptavidin magnetic beads, Western blot. On the technique in general: In western blotting, separated proteins are transferred to a membrane and probed.

≈ marks a conversion by molar mass, not a printed value.

For `CC1(C)S[C@@H]2[C@H](NC(=O)[C@H](N)c3ccccc3)C(=O)N2[C@H]1C(=O)O` [Ampicillin], the “MIC fold higher than that of SCA-50” value in the assay with S. aureus Mu50 [1] stood at 250 fold.

In the case of `CC[C@H]1OC(=O)[C@H](C)[C@@H](O[C@H]2C[C@@](C)(OC)[C@@H](O)[C@H](C)O2)[C@H](C)[C@@H](O[C@@H]2O[C@H](C)C[C@H](N(C)C)[C@H]2O)[C@](C)(O)C[C@@H](C)C(=O)[C@H](C)[C@@H](O)[C@]1(C)O` [Erythromycin], the “MIC fold higher than that of SCA-50” value against S. aureus Mu50 [1] is recorded as 250 fold.

As to `NC[C@H]1O[C@H](O[C@H]2[C@H](O)[C@@H](O[C@H]3O[C@H](CO)[C@@H](O)[C@H](N)[C@H]3O)[C@H](N)C[C@@H]2N)[C@H](O)[C@@H](O)[C@@H]1O` [Kanamycin], the “MIC fold higher than that of SCA-50” value in the assay on S. aureus Mu50 [1] is 250 fold.

Turning to `O=C([O-])c1c(Cl)c(Cl)c(Cl)c(Cl)c1-c1c2cc(I)c(=O)c(I)c-2oc2c(I)c([O-])c(I)cc12.[Na+].[Na+]` [RB, Rose Bengal], the “substrate of NorA efflux pump” value in assay [2] is “substrate of NorA”.

On to `CO[C@H]1/C=C/O[C@@]2(C)Oc3c(C)c(O)c4c(O)c(c(/C=N/N5CCN(C)CC5)c(O)c4c3C2=O)NC(=O)/C(C)=C\C=C\[C@H](C)[C@H](O)[C@@H](C)[C@@H](O)[C@@H](C)[C@H](OC(C)=O)[C@@H]1C` [Rifampicin], for which the “MIC fold higher than that of SCA-50” value against S. aureus Mu50 [1] came to 250 fold.

Broadly, the MIC is the lowest concentration that inhibits growth of the organism. Regarding `CCCCCCC1c2ccc(O)cc2Oc2cc(O)ccc21` [SCA-50], at SaSecA1 [3], the “manner of inhibition of translocation related ATPase activity of SaSecA1” value is “non-competitive”. Also, the MIC in the assay on S. aureus Mu50 [1] (Staphylococcus aureus, MU50, read-out: MIC against S. aureus Mu50) was 12.5 µM (≈ 3.73 µg/mL). In addition, the “effect of light on bactericidal effects” value in the assay on S. aureus ATCC 6538 is on record as “not obviously affected by light”. In assay [4], the “amount of TSST-1 in the supernatant” value was “significantly decreased”, the “amount of enterotoxin B in the supernatant” value was “significantly decreased” and the “amount of α-hemolysin in the supernatant” value was “significantly decreased”. Moreover, the “amount of extracellular proteins in the supernatant” value in assay [4] (10 µM) is given as “reduced the amount of many extracellular proteins”. For the same compound, in the assay with S. aureus Mu50 [5], the “OD600 reading compared with control” value is reported as “didn’t obviously change”.

As to `O=C(CCCC[C@@H]1SC[C@@H]2NC(=O)N[C@@H]21)NCCCCCCC1c2ccc(O)cc2Oc2cc(O)ccc21` [SCA-254], the “pull down of SaSecA1 from whole cell lysates” value at SaSecA1 [6] is “could recognize and pull down SaSecA1”.

As to `CN[C@@H](CC(C)C)C(=O)N[C@H]1C(=O)N[C@@H](CC(N)=O)C(=O)N[C@H]2C(=O)N[C@H]3C(=O)N[C@H](C(=O)N[C@@H](C(=O)O)c4cc(O)cc(O)c4-c4cc3ccc4O)[C@H](O)c3ccc(c(Cl)c3)Oc3cc2cc(c3O[C@H]2O[C@@H](CO)[C@H](O)[C@@H](O)[C@@H]2O[C@@H]2C[C@@](C)(N)[C@@H](O)[C@@H](C)O2)Oc2ccc(cc2Cl)[C@H]1O` [Vancomycin], the “MIC fold higher than that of SCA-50” value against S. aureus Mu50 [1] was “two-fold higher”.

As for polymyxin B [Polymxin B], the “Bacteriostatic effect MIC, S. aureus Mu50 (comparison with antibiotics)” value in the assay on S. aureus Mu50 [1] (Table 2, n = 6) stood at 31 µg/mL.
